From US8962844B2, “1,3,4-oxadiazole and 1,3,4-thiadiazole β-lactamase inhibitors” (priority 2012, dated 2015)
Where a name gives a salt, the structure may show the parent alone.

test system: bacterial strains that express the class D cephalosporinase OXA-15; experiment: Standard BLI potentiation MIC / synergy MIC (sMIC) assays run in the presence of a β-lactam, OXA-15 expressing strains; type: cell-based, E. coli; details: BLI in combination with a β-lactam; comparison with Avibactam (comparator compound CCC)
Text: Unless otherwise indicated, the activity of the BLI compounds can be described by the MIC value obtained from a Synergy MIC assay or a BLI potentiation assay (e.g as described herein), both of which are run in the presence of a β-lactam.
A set of β-lactamase expressing isogenic E. coli strains was constructed by cloning a β-lactamase gene into a customized derivative of pBR322 (GenBank Accession Number J01749) and transforming the engineered plasmids into E. coli. The NdeI restriction site within the plasmid backbone of pBR322 was removed to generate pBR322 ΔNdeI. The pBR322 ΔNdeI vector itself, minus the blaTEM-1 gene, was amplified using two primers: (1) pBR-Pbla 5′-cgcatatgactettectttttcaatattattg-3, SEQ ID 1, a primer with an engineered NdeI restriction site at the 3′ end of the blaTEM-1 promoter and (2) pBR-vec-1 5′-[…]-3′, SEQ ID 2, a primer with an engineered BamHI restriction site at the 3′ end of the blaTEM-1 open reading frame. The chloramphenicol resistance gene, cat, was generated by PCR amplification from pKD3 (GenBank Accession Number AY048742) using primers with an engineered NdeI restriction site at the 5′ end (Pbla-cat 5′-[…]-3′, SEQ ID 3) and an engineered BamHI restriction site at the 3′ end (Vec-1-cat 5′-[…]-3′, SEQ ID 4) of the resistance gene. The two PCR products, pBR322 ΔNdeI and cat were ligated together generating pBR-CBST (pBR322 ΔNdeI ΔTEM-1::cat Seq. ID 5) which retains both the pBR322 tetracycline resistance cassette, tetA, and the plasmid origin of replication but the blaTEM-1 gene was replaced by the cat gene.
Using this engineering strategy a number of plasmids producing β-lactamase genes from different classes (see below) were generated using synthetic genes with an engineered NdeI restriction site at the 5′ end and BamHI restriction site at the 3′ end of each gene (GenScript). Both the synthetic β-lactamase genes and cat gene were ligated into the NdeI/BamHI sites of the pBR322 ΔNdeI PCR product and transformed into electrocompetent E. coli ElectroMax DH10B (Invitrogen/Life Technologies). E. coli DH10B harboring the recombinant plasmids were selected on LB agar (supplemented with 25 μg/mL tetracycline) and single isolated colonies were then inoculated into 5 mL LB media (supplemented with 25 μg/mL tetracycline), and incubated at 37° C. with aeration (250 rpm) for 18 hrs. The cultures were frozen back at −80° C. in 20% glycerol. The DNA sequence of the cloned β-lactamase genes was confirmed. The β-lactamase gene expression in the recombinant E. coli strains was driven by the blaTEM-1 promoter in the pBR-CBST plasmid and was characterized by MIC profiling of the E. coli recombinant strains against comparator β-lactam/BLI combinations in broth microdilution assay.
The experimental protocol was performed according to Clinical and Laboratory Standards Institute (CLSI) guidelines with modifications as described below (CLSI guidelines can be derived from the CLSI document M07-A9 published in January 2012: “Methods for Dilution Antimicrobial Susceptibility Tests for Bacteria That Grow Aerobically; Approved Standard-Ninth Edition”).
To prepare for MIC testing, frozen glycerol stocks of clinical isolates (Klebsiella pneumoniae, Eschericia coli, Enterobacter spp, Citrobacter spp, or Pseudomonas aeruginosa) were used to streak for isolated colonies on rich, non-selective, tryptic soy agar containing 5% sheep's blood (TSAB). Frozen glycerol stocks of laboratory engineered, isogenic E. coli strains, which contain cloned β-lactamase expressing plasmids were used to streak for isolated colonies on rich, selective LB agar supplemented with 25 μg/mL tetracycline to maintain the plasmid. All strains were incubated at 37° C. for 18-24 hrs.
On the day of testing, primary cultures were started by scraping off 5-10 colonies from the TSAB plates containing clinical strains or the tetracycline supplemented LB plates containing engineered strains. […]

SMILES	activity against bacterial strains that express the class D cephalosporinase OXA-15, compared with Avibactam
NCCNCCc1nnc([C@@H]2CC[C@@H]3CN2C(=O)N3OS(=O)(=O)O)o1 [Compound 716, (2S,5R)-2-(5-(2-((2-aminoethyl)amino)ethyl)-1,3,4-oxadiazol-2-yl)-7-oxo-1,6-diazabicyclo[3.2.1]octan-6-yl hydrogen sulfate]	more active than Avibactam
N[C@H]1CC[C@@H](c2nnc([C@@H]3CC[C@@H]4CN3C(=O)N4OS(=O)(=O)O)o2)CC1 [Compound 780, (2S,5R)-2-(5-((1s,4R)-4-aminocyclohexyl)-1,3,4-oxadiazol-2-yl)-7-oxo-1,6-diazabicyclo[3.2.1]octan-6-yl hydrogen sulfate]	more active than Avibactam
O=C1N2C[C@@H](CC[C@H]2c2nnc(N3CCNCC3)o2)N1OS(=O)(=O)O [Compound 713, (2S,5R)-7-oxo-2-(5-(piperazin-1-yl)-1,3,4-oxadiazol-2-yl)-1,6-diazabicyclo[3.2.1]octan-6-yl hydrogen sulfate]	more active than Avibactam
O=C1N2C[C@@H](CC[C@H]2c2nnc([C@@H]3CNCCN3)o2)N1OS(=O)(=O)O [Compound 778, (2S,5R)-7-oxo-2-(5-((S)-piperazin-2-yl)-1,3,4-oxadiazol-2-yl)-1,6-diazabicyclo[3.2.1]octan-6-yl hydrogen sulfate]	more active than Avibactam
O=C1N2C[C@@H](CC[C@H]2c2nnc(N3CCNCC3)s2)N1OS(=O)(=O)O [Compound 797, (2S,5R)-7-oxo-2-(5-(piperazin-1-yl)-1,3,4-thiadiazol-2-yl)-1,6-diazabicyclo[3.2.1]octan-6-yl hydrogen sulfate]	more active than Avibactam
O=C1N2C[C@@H](CC[C@H]2c2nnc(CNC3CCNCC3)o2)N1OS(=O)(=O)O [Compound 769, (2S,5R)-7-oxo-2-(5-((piperidin-4-ylamino)methyl)-1,3,4-oxadiazol-2-yl)-1,6-diazabicyclo[3.2.1]octan-6-yl hydrogen sulfate]	more active than Avibactam
O=C1N2C[C@@H](CC[C@H]2c2nnc(CC3CNC3)o2)N1OS(=O)(=O)O [Compound 725, (2S,5R)-2-(5-(azetidin-3-ylmethyl)-1,3,4-oxadiazol-2-yl)-7-oxo-1,6-diazabicyclo[3.2.1]octan-6-yl hydrogen sulfate]	more active than Avibactam
N[C@H]1CC[C@H](c2nnc([C@@H]3CC[C@@H]4CN3C(=O)N4OS(=O)(=O)O)o2)CC1 [Compound 781, (2S,5R)-2-(5-((1r,4S)-4-aminocyclohexyl)-1,3,4-oxadiazol-2-yl)-7-oxo-1,6-diazabicyclo[3.2.1]octan-6-yl hydrogen sulfate]	more active than Avibactam
NCC(N)c1nnc([C@@H]2CC[C@@H]3CN2C(=O)N3OS(=O)(=O)O)o1 (stereo partly drawn) [Compound 717, (2S,5R)-2-(5-(1,2-diaminoethyl)-1,3,4-oxadiazol-2-yl)-7-oxo-1,6-diazabicyclo[3.2.1]octan-6-yl hydrogen sulfate]	more active than Avibactam
NCC(O)c1nnc([C@@H]2CC[C@@H]3CN2C(=O)N3OS(=O)(=O)O)o1 (stereo partly drawn) [Compound 715, (2S,5R)-2-(5-(2-amino-1-hydroxyethyl)-1,3,4-oxadiazol-2-yl)-7-oxo-1,6-diazabicyclo[3.2.1]octan-6-yl hydrogen sulfate]	more active than Avibactam
N[C@H]1C[C@H](NCc2nnc([C@@H]3CC[C@@H]4CN3C(=O)N4OS(=O)(=O)O)o2)C1 [Compound 757, (2S,5R)-2-(5-((((1r,3S)-3-aminocyclobutyl)amino)methyl)-1,3,4-oxadiazol-2-yl)-7-oxo-1,6-diazabicyclo[3.2.1]octan-6-yl hydrogen sulfate]	more active than Avibactam
N=C(N)N[C@H]1C[C@H](c2nnc([C@@H]3CC[C@@H]4CN3C(=O)N4OS(=O)(=O)O)o2)C1 [Compound 748, (2S,5R)-2-(5-((1r,3S)-3-guanidinocyclobutyl)-1,3,4-oxadiazol-2-yl)-7-oxo-1,6-diazabicyclo[3.2.1]octan-6-yl hydrogen sulfate]	more active than Avibactam
N=C(N)NCc1nnc([C@@H]2CC[C@@H]3CN2C(=O)N3OS(=O)(=O)O)o1 [Compound 704, (2S,5R)-2-(5-(guanidinomethyl)-1,3,4-oxadiazol-2-yl)-7-oxo-1,6-diazabicyclo[3.2.1]octan-6-yl hydrogen sulfate]	more active than Avibactam
NC1CCN(c2nnc([C@@H]3CC[C@@H]4CN3C(=O)N4OS(=O)(=O)O)o2)CC1 [Compound 773, (2S,5R)-2-(5-(4-aminopiperidin-1-yl)-1,3,4-oxadiazol-2-yl)-7-oxo-1,6-diazabicyclo[3.2.1]octan-6-yl hydrogen sulfate]	more active than Avibactam
O=C1N2C[C@@H](CC[C@H]2c2nnc(CCCN3CCNCC3)o2)N1OS(=O)(=O)O [Compound 792, (2S,5R)-7-oxo-2-(5-(3-(piperazin-1-yl)propyl)-1,3,4-oxadiazol-2-yl)-1,6-diazabicyclo[3.2.1]octan-6-yl hydrogen sulfate]	more active than Avibactam
Nc1nnc([C@@H]2CC[C@@H]3CN2C(=O)N3OS(=O)(=O)O)o1 [Compound 707, (2S,5R)-2-(5-amino-1,3,4-oxadiazol-2-yl)-7-oxo-1,6-diazabicyclo[3.2.1]octan-6-yl hydrogen sulfate]	more active than Avibactam
NCC(O)Cc1nnc([C@@H]2CC[C@@H]3CN2C(=O)N3OS(=O)(=O)O)o1 (stereo partly drawn) [Compound 733, (2S,5R)-2-(5-(3-amino-2-hydroxypropyl)-1,3,4-oxadiazol-2-yl)-7-oxo-1,6-diazabicyclo[3.2.1]octan-6-yl hydrogen sulfate]	more active than Avibactam
O=C1N2C[C@@H](CC[C@H]2c2nnc(C3CCNCC3)s2)N1OS(=O)(=O)O [Compound 719, (2S,5R)-7-oxo-2-(5-(piperidin-4-yl)-1,3,4-thiadiazol-2-yl)-1,6-diazabicyclo[3.2.1]octan-6-yl hydrogen sulfate]	more active than Avibactam
N=C(N)N1CCC(c2nnc([C@@H]3CC[C@@H]4CN3C(=O)N4OS(=O)(=O)O)o2)CC1 [Compound 712, (2S,5R)-2-(5-(1-carbamimidoylpiperidin-4-yl)-1,3,4-oxadiazol-2-yl)-7-oxo-1,6-diazabicyclo[3.2.1]octan-6-yl hydrogen sulfate]	more active than Avibactam
N=C(N)NCCCc1nnc([C@@H]2CC[C@@H]3CN2C(=O)N3OS(=O)(=O)O)o1 [Compound 714, (2S,5R)-2-(5-(3-guanidinopropyl)-1,3,4-oxadiazol-2-yl)-7-oxo-1,6-diazabicyclo[3.2.1]octan-6-yl hydrogen sulfate]	more active than Avibactam
